Measured values taken from patent publication US11617754B2, “Methods of treating heart failure with preserved ejection fraction” (Poxel SA, priority 2017, dated 2023).

Legend:
Assay type in all cases: in vivo, rat
Zucker fa/fa rats [1] = assay: Myocardial perfusion by MRI (arterial spin labeling) in Zucker fa/fa rats; conditions: 150 mg/kg bid, vs untreated Zucker fa/fa
Procedure: (§1) Experiments were performed on 12-week-old Male Zucker fa/fa rats or lean control rats purchased from Ch. River (US).
(§2) Animals were kept 2 per cage in standard laboratory conditions, and drugs were administered by gavage (at 9 am and at 6 pm) at the dose of 150 mg/kg bid and administered for 9 or 90 days. Imeglimin's effects on cardiac dysfunction were assessed. • First experiment protocol:
(§3) The Zucker fa/fa animals were randomized on their body weight in two groups and three groups were then constituted: • Lean rats (Treated with vehicle n=12) • Control Zucker fa/fa rats (Treated with vehicle n=18) • Imeglimin treated Zucker fa/fa rats at the dose of 150 mg/kg bid (n=18)
(§4) After a short-term treatment (9 days), cardiac function (echocardiography and MRI) and cardiac hemodynamics were assessed (1 h after the last treatment) on all rats. • Second experiment protocol: […]
(§5) After a long-term treatment (90 days), cardiac function (echocardiography and MRI) and cardiac hemodynamics were assessed (1 h after the last treatment) on all rats.
The ECG signal was monitored by placing two subcutaneous electrodes on each side of the rat at chest level. […] Upon subtraction of an image acquired without spin labelling, the background signal from static spins is removed and the difference image can be used to quantify perfusion. […]

[2] = tested on: septal coronary artery of Zucker fa/fa rats; assay: Coronary endothelial function: acetylcholine-induced relaxation of septal coronary artery from treated Zucker fa/fa rats; conditions: 150 mg/kg bid, administration for 9 and 90 days, serotonin-precontracted segments
Procedure: as §1, §2
Coronary endothelial function was assessed after 9 or 90 days of treatment, as described previously (Fang Y H et al, Journal of Cardiovascular Pharmacology, 2012, 59: 260-267; Mulder et al., Eur Heart J., 2008, 29:2171-2179). In brief, at the end of the left ventricular function assessment, the heart was removed and immediately placed in cold oxygenated Krebs buffer. A 1.5- to 2-mm-long segment of arteries were carefully dissected and mounted in a small vessel myograph. Normalization procedure was performed after an equilibration period. Segments with an internal diameter<170 μm was excluded to avoid mechanical endothelial injury and unspecific dysfunction. Concentration-response curves to acetylcholine (10^−8 to 3×10^−5 mol/L) were performed in serotonin-precontracted segments (10^−5 mol/L).

Zucker fa/fa rats [3] = assay: Left ventricular oxidative stress: ROS production in LV homogenates by EPR, Zucker fa/fa rats; conditions: 150 mg/kg bid
Procedure: as §1, §2
Left ventricular reactive oxygen species production level were evaluated in left ventricular homogenates (obtained after 9 or 90 days of treatment) by electron paramagnetic resonance spectroscopy (EPR) using the spin probe 1-hydroxy-3-methoxycarbonyl-2,2,5,5-tetramethylpyrrolidine (CMH, Noxygen, Germany), as previously described (Mulder P, Eur Heart J. 2008; 29:2171-2179). Stock solution of CMH (50 mM) were prepared in Krebs-HEPES buffer (0.1 M NaCl, 5 mM KCl, 2.5 mM CaCl2, 1.2 mM MgSO4, 25 mM NaHCO3, 1 mM KH2PO4, 5.6 mM D(+)-Glucose, 20 mM Na-HEPES, pH 7.4) containing 25 μM deferoxamine and 5 μM diethyldithiocarbamate. […] The oxidation of CMH into the stable 3-methoxycarbonyl-proxyl (CM•), driven mainly by superoxide and peroxynitrite reactions, was recorded using a MiniScope MS-200 X-band spectrometer (Magnettech, Germany). […] Intensity of the spectra was measured from the height of the central line. CM• production was quantified using CP° standard and expressed in μmol of CM• per mg of total proteins.

Zucker fa/fa rats [4] = assay: Cardiac hemodynamics (left ventricular pressure-volume curves) in Zucker fa/fa rats
Procedure: as §1, §2, §3
After a short-term treatment (9 days), cardiac function (echocardiography and MRI) and cardiac hemodynamics were assessed (1 h after the last treatment) on all rats. • Second experiment protocol:
(§6) The Zucker fa/fa animals were randomized on their body weight in two groups and three groups were then constituted: • Lean rats (Treated with vehicle n=18) • Control Zucker fa/fa rats (Treated with vehicle n=24) • Imeglimin treated Zucker fa/fa rats at the dose of 150 mg/kg bid (n=24)
as §5
The imeglimin suspension was prepared at the concentrations used in the study (150 mg/kg) and homogenized in 10 mL of the Methylcellulose solution. The drug suspension was prepared on the day of administration.
Left ventricle function was assessed using left pressure volume curves after 9 or 90 days of treatment, as previously described (Fang Y et al, J Mol Cell Cardiol., 2011, 51:168-176; Fang Y H et al, Journal of Cardiovascular Pharmacology, 2012, 59: 260-267). In brief, a 2F miniaturized combined conductance catheter-micromanometer (model SPR-819, Millar Instruments) connected to a pressure-conductance unit (MPCU-200, Millar) was advanced retrograde via the carotid artery into the left ventricle. This catheter has a micro-manometer surrounded by 4 platinum electrodes; the two outermost electrodes generate a current of 0.1 mA at a frequency of 20 kHz, which is sensed by the two innermost electrodes. Pressure-Volume (PV) loops were recorded at baseline and during loading by gently occluding the abdominal aorta with a cotton swab. Data were stored and analysed by using Millar conductance data acquisition and analysis software. Finally, the following parameters were measured/calculated from the pressure-volume curves: • Left ventricular end-diastolic pressure; • Left ventricular end-systolic pressure; • Left ventricular relaxation constant Tau; • Left ventricular end-diastolic pressure-volume relation; and • Left ventricular end-systolic pressure-volume relation. Coronary Endothelial Function

Zucker fa/fa rats [5] = assay: Cardiac histology: LV collagen density (Sirius red) in Zucker fa/fa rats; conditions: 150 mg/kg bid, D90, mean ± SEM
Procedure: as §1, §2, §6
At the end of the treatment period, the heart was taken out. After fixation, the left ventricle was cut in 3 sections of identical thickness. The sections of the heart were dehydrated and embedded in paraffin. 3 μm-thick sections were cut from each block and mounted on glass slides. Sections were stained with Sirius red for the determination of collagen. Slides were enlarged 500 times using a microscope connected to an image analysis system, as previously described (Mulder et al., J. Am. Coll. Cardiol., 1997). Collagen density was calculated in the left ventricle as the surface occupied by collagen divided by the surface of the image.

Zucker fa/fa rats [6] = assay: Echocardiography, cardiac output in Zucker fa/fa rats; conditions: 150 mg/kg bid, 90 days, vs untreated Zucker fa/fa
Procedure: as §1, §2, §3, §4, §5
Studies were performed on rats after 9 and 90 days of treatment. […] LV diameters were measured by the American Society of Echocardiography leading-edge method from at least 3 consecutive cardiac cycles. […]

[7] = 150 mg/kg bid, 90 days, vs untreated Zucker fa/fa

CC1N=C(N)NC(N(C)C)=N1 (single isomer, unassigned; (+)) [Imeglimin, (+)-2-amino-3,6-dihydro-4-dimethylamino-6-methyl-1,3,5-triazine]
increase in the myocardial perfusion (Zucker fa/fa rats [1]; 9 days): already significant | myocardial perfusion (FIG. 2B) (Zucker fa/fa rats [1]; 90 days): increased | acetylcholine-induced relaxation of septal coronary artery (FIG. 3) [2]: prevented the impairment | LV ROS production (Zucker fa/fa rats [3]; D9, mean ± SEM): 27.61 ± 1.29 AU · μg^−1 · h^−1 | LV ROS production (Zucker fa/fa rats [3]; D90, mean ± SEM): 34.02 ± 1.49 AU · μg^−1 · h^−1 | reduction of the left ventricular end-diastolic pressure-volume relation (Zucker fa/fa rats [4]; 150 mg/kg bid by gavage, 9 days of treatment): about 26% | reduction of the left ventricular end-diastolic pressure-volume relation (Zucker fa/fa rats [4]; 150 mg/kg bid by gavage, 90 days of treatment): ~58% | reduction of the left ventricular end-diastolic pressure-volume relation (Zucker fa/fa rats [4]; 150 mg/kg bid, 9 days, vs untreated Zucker fa/fa): already significant | LV compliance increase (Zucker fa/fa rats [4]; 150 mg/kg bid, 90 days of treatment): about 50% | LV end-diastolic pressure (FIG. 1A) (Zucker fa/fa rats [4]; [7]): significant reduction | LV end-diastolic pressure volume relation (FIG. 1C) (Zucker fa/fa rats [4]; [7]): significant reduction | LV relaxation constant Tau (FIG. 1B) (Zucker fa/fa rats [4]; [7]): significant reduction | LV collagen density (Zucker fa/fa rats [5]): 2.52 ± 0.20 % | cardiac output (FIG. 2A) (Zucker fa/fa rats [6]): increased
